# Test results as given in PMC5218480 (PLoS ONE, 2017).
# Tested on: MV-4-11 cells
# Assay: Gene expression microarray analysis (Affymetrix PrimeView) and GSEA
# Assay type: cell-based, human
# Set-up: RFU PODN (11730768_x_at) / Fold change /veh PODN (11730768_x_at) / RFU LINC00158 (11744669_a_at) / Fold change /veh LINC00158 (11744669_a_at) / RFU DUSP10 (11751237_a_at) / Fold change /veh DUSP10 (11751237_a_at) / RFU ID3 (11757404_x_at) / Fold change /veh ID3 (11757404_x_at) / RFU PLEKHG5 (11737974_s_at) / Fold change /veh PLEKHG5 (11737974_s_at) / RFU LRRC4B (11730491_at) / Fold change /veh LRRC4B (11730491_at) / RFU GIMAP4 (11747438_a_at) / Fold change /veh GIMAP4 (11747438_a_at) / RFU KRT8 (11758183_x_at) / Fold change /veh KRT8 (11758183_x_at) / RFU CNN1 (11734310_a_at) / Fold change /veh CNN1 (11734310_a_at) / RFU VPS37D (11726825_at) / Fold change /veh VPS37D (11726825_at) / RFU C10orf10 (11716522_x_at) / Fold change /veh C10orf10 (11716522_x_at) / RFU KIR2DL2 /// KIR2DL4 /// KIR2DL5A /// KIR2DL5B /// KIR2DS1 /// KIR2DS2 /// KIR2DS3 /// KIR2DS4 /// KIR3DL3 /// KIR3DL3 /// KIR3DS1 (11738374_at) / Fold change /veh KIR2DL2 /// KIR2DL4 /// KIR2DL5A /// KIR2DL5B /// KIR2DS1 /// KIR2DS2 /// KIR2DS3 /// KIR2DS4 /// KIR3DL3 /// KIR3DL3 /// KIR3DS1 (11738374_at) / RFU C1QL1 (11718748_at) / Fold change /veh C1QL1 (11718748_at) / RFU TMPRSS4 (11747572_a_at) / Fold change /veh TMPRSS4 (11747572_a_at) / RFU HAMP (11756126_x_at) / Fold change /veh HAMP (11756126_x_at) / RFU RNFT2 (11725882_a_at) / Fold change /veh RNFT2 (11725882_a_at) / RFU NR4A2 (11747474_a_at) / Fold change /veh NR4A2 (11747474_a_at) / RFU ABCC12 (11746883_a_at) / Fold change /veh ABCC12 (11746883_a_at) / RFU TMEM136 (11760407_x_at) / Fold change /veh TMEM136 (11760407_x_at) / RFU CLDN22 /// WWC2 (11732394_at) / Fold change /veh CLDN22 /// WWC2 (11732394_at) / RFU HLA-DPB1 (11760878_x_at) / Fold change /veh HLA-DPB1 (11760878_x_at) / RFU SPINT1 (11716480_a_at) / Fold change /veh SPINT1 (11716480_a_at) / RFU GAP43 (11754022_s_at) / Fold change /veh GAP43 (11754022_s_at) / RFU A4GNT (11735810_at) / Fold change /veh A4GNT (11735810_at) / RFU PRB3 (11715151_x_at) / Fold change /veh PRB3 (11715151_x_at) / RFU TUBB4B (11761932_at) / Fold change /veh TUBB4B (11761932_at) / RFU CAPN14 (11732068_a_at) / Fold change /veh CAPN14 (11732068_a_at) / RFU TMCC2 (11721928_a_at) / Fold change /veh TMCC2 (11721928_a_at) / RFU IRGQ (11745062_a_at) / Fold change /veh IRGQ (11745062_a_at) / RFU FAM174B (11720279_a_at) / Fold change /veh FAM174B (11720279_a_at) / RFU TMPRSS4 (11748680_a_at) / Fold change /veh TMPRSS4 (11748680_a_at) / RFU FAM212B (11763350_a_at) / Fold change /veh FAM212B (11763350_a_at) / RFU PLEKHG5 (11743358_a_at) / Fold change /veh PLEKHG5 (11743358_a_at) / RFU ZSCAN30 (11745921_a_at) / Fold change /veh ZSCAN30 (11745921_a_at) / RFU CMKLR1 (11741424_a_at) / Fold change /veh CMKLR1 (11741424_a_at) / RFU LOC101060620 /// MAPK8IP1 (11723275_at) / Fold change /veh LOC101060620 /// MAPK8IP1 (11723275_at) / RFU SPTSSB (11747773_x_at) / Fold change /veh SPTSSB (11747773_x_at) / RFU PRSS12 (11739890_at) / Fold change /veh PRSS12 (11739890_at) / RFU BIN1 (11741810_x_at) / Fold change /veh BIN1 (11741810_x_at) / RFU WNT11 (11732464_a_at) / Fold change /veh WNT11 (11732464_a_at) / RFU C10orf10 (11716521_a_at) / Fold change /veh C10orf10 (11716521_a_at) / RFU C5orf56 (11738089_at) / Fold change /veh C5orf56 (11738089_at) / RFU CYB561 (11721691_x_at) / Fold change /veh CYB561 (11721691_x_at) / RFU ANKRD19P (11752326_a_at) / Fold change /veh ANKRD19P (11752326_a_at) / RFU OR2T12 /// OR2T33 /// OR2T8 (11738714_s_at) / Fold change /veh OR2T12 /// OR2T33 /// OR2T8 (11738714_s_at) / RFU VCAN (11748164_a_at) / Fold change /veh VCAN (11748164_a_at) / RFU JSRP1 (11732532_at) / Fold change /veh JSRP1 (11732532_at) / RFU KRTAP10-11 (11738290_x_at) / Fold change /veh KRTAP10-11 (11738290_x_at) / RFU MYO3A (11730013_a_at) / Fold change /veh MYO3A (11730013_a_at) / RFU EBF3 (11725865_a_at) / Fold change /veh EBF3 (11725865_a_at) / RFU CAMK2N1 (11719241_x_at) / Fold change /veh CAMK2N1 (11719241_x_at) / RFU C5orf56 (11738088_a_at) / Fold change /veh C5orf56 (11738088_a_at) / RFU OLFML3 (11715873_a_at) / Fold change /veh OLFML3 (11715873_a_at) / RFU LOC100653217 /// NTM (11731650_a_at) / Fold change /veh LOC100653217 /// NTM (11731650_a_at) / RFU MAPK11 (11762145_a_at) / Fold change /veh MAPK11 (11762145_a_at) / RFU FIZ1 (11724087_x_at) / Fold change /veh FIZ1 (11724087_x_at) / RFU OASL (11726364_x_at) / Fold change /veh OASL (11726364_x_at) / RFU SOX15 (11748057_x_at) / Fold change /veh SOX15 (11748057_x_at) / RFU CD79A (11719716_a_at) / Fold change /veh CD79A (11719716_a_at) / RFU HIST1H1D (11736915_at) / Fold change /veh HIST1H1D (11736915_at) / RFU CASKIN2 (11723855_a_at) / Fold change /veh CASKIN2 (11723855_a_at) / RFU LOC730098 (11760151_x_at) / Fold change /veh LOC730098 (11760151_x_at) / RFU OR4N2 (11742367_at) / Fold change /veh OR4N2 (11742367_at) / RFU PRRT2 (11749266_a_at) / Fold change /veh PRRT2 (11749266_a_at) / RFU SNX32 (11753110_a_at) / Fold change /veh SNX32 (11753110_a_at) / RFU CDHR5 (11726645_a_at) / Fold change /veh CDHR5 (11726645_a_at) / RFU RCAN1 (11760418_a_at) / Fold change /veh RCAN1 (11760418_a_at) / RFU FAM167A (11723789_a_at) / Fold change /veh FAM167A (11723789_a_at) / RFU FAM26E (11764081_at) / Fold change /veh FAM26E (11764081_at) / RFU ISYNA1 (11749810_s_at) / Fold change /veh ISYNA1 (11749810_s_at) / RFU ACY1 (11761880_at) / Fold change /veh ACY1 (11761880_at) / RFU 11764098_at / Fold change /veh 11764098_at / RFU SAMD14 (11745864_x_at) / Fold change /veh SAMD14 (11745864_x_at) / RFU NPB (11741838_a_at) / Fold change /veh NPB (11741838_a_at) / RFU TMPRSS6 (11731388_a_at) / Fold change /veh TMPRSS6 (11731388_a_at) / RFU KRTAP10-2 (11738614_at) / Fold change /veh KRTAP10-2 (11738614_at) / RFU ARHGAP8 /// PRR5-ARHGAP8 (11727945_x_at) / Fold change /veh ARHGAP8 /// PRR5-ARHGAP8 (11727945_x_at) / RFU KRTAP5-7 /// NADSYN1 (11734609_at) / Fold change /veh KRTAP5-7 /// NADSYN1 (11734609_at) / RFU RASL12 (11751679_a_at) / Fold change /veh RASL12 (11751679_a_at) / RFU CDKN2B (11736163_a_at) / Fold change /veh CDKN2B (11736163_a_at) / RFU PRF1 (11729649_at) / Fold change /veh PRF1 (11729649_at) / RFU, ZNF638 /// ZNF638-IT1 / Fold change vs veh, ZNF638 /// ZNF638-IT1 / RFU, PANK3 / Fold change vs veh, PANK3 / RFU, SH3YL1 / Fold change vs veh, SH3YL1 / RFU, ZEB2 / Fold change vs veh, ZEB2 / RFU, NRIP1 / Fold change vs veh, NRIP1 / RFU, PTTG1IP / Fold change vs veh, PTTG1IP / RFU, CAPN2 / Fold change vs veh, CAPN2 / RFU, MED14 / Fold change vs veh, MED14 / RFU, SNORA58 / Fold change vs veh, SNORA58 / RFU, C1orf63 / Fold change vs veh, C1orf63 / RFU, LRRFIP1 / Fold change vs veh, LRRFIP1 / RFU, NDUFAF7 / Fold change vs veh, NDUFAF7 / RFU, SLC12A2 / Fold change vs veh, SLC12A2 / RFU, IBTK / Fold change vs veh, IBTK / RFU, ESF1 / Fold change vs veh, ESF1 / Fold change vs veh, TMEM50B / RFU, TAOK1 / Fold change vs veh, TAOK1 / RFU, ACBD3 / Fold change vs veh, ACBD3 / RFU, TMA16 / Fold change vs veh, TMA16 / RFU, RWDD3 / Fold change vs veh, RWDD3 / RFU, BCAT1 / Fold change vs veh, BCAT1 / RFU, EDEM3 / Fold change vs veh, EDEM3 / RFU, TMEM33 / Fold change vs veh, TMEM33 / RFU, WDR75 / Fold change vs veh, WDR75 / RFU, AHCTF1 / Fold change vs veh, AHCTF1 / RFU, TFRC / Fold change vs veh, TFRC / RFU, ZDHHC17 / Fold change vs veh, ZDHHC17 / RFU, NOM1 / Fold change vs veh, NOM1 / RFU, ARL8B / Fold change vs veh, ARL8B / RFU, ZBTB11 / Fold change vs veh, ZBTB11 / RFU, TAMM41 / Fold change vs veh, TAMM41 / RFU, KIAA1704 /// LOC100996395 / Fold change vs veh, KIAA1704 /// LOC100996395 / RFU, ING1 / Fold change vs veh, ING1 / RFU, TRMT61B / Fold change vs veh, TRMT61B / RFU, FUBP3 / Fold change vs veh, FUBP3 / RFU, TP53 / Fold change vs veh, TP53 / RFU, TNKS2 / Fold change vs veh, TNKS2 / RFU, ZFP14 / Fold change vs veh, ZFP14 / RFU, ACTR2 / Fold change vs veh, ACTR2 / RFU, PPP3R1 / Fold change vs veh, PPP3R1 / RFU, PIK3R1 / Fold change vs veh, PIK3R1 / RFU, HNRNPA1 / Fold change vs veh, HNRNPA1 / RFU, RNF170 / Fold change vs veh, RNF170 / RFU, ZNF28 / Fold change vs veh, ZNF28 / RFU, RNGTT / Fold change vs veh, RNGTT / RFU, OGT / Fold change vs veh, OGT / RFU, BRD1 / Fold change vs veh, BRD1 / RFU, MARS / Fold change vs veh, MARS / RFU, ZNF655 / Fold change vs veh, ZNF655 / RFU, FAHD1 / Fold change vs veh, FAHD1 / RFU, BDP1 / Fold change vs veh, BDP1 / RFU, LRRCC1 / Fold change vs veh, LRRCC1 / RFU, ARID1A / Fold change vs veh, ARID1A / RFU, ZNF146 / Fold change vs veh, ZNF146 / RFU, ZNF330 / Fold change vs veh, ZNF330 / RFU, GPN3 / Fold change vs veh, GPN3 / RFU, C9orf123 / Fold change vs veh, C9orf123 / RFU, N4BP2L2 / Fold change vs veh, N4BP2L2 / RFU, ARFIP1 / Fold change vs veh, ARFIP1 / RFU, FAM179B / Fold change vs veh, FAM179B / RFU, BCL10 / Fold change vs veh, BCL10 / RFU, UHRF1BP1L / Fold change vs veh, UHRF1BP1L / RFU, BET1 / Fold change vs veh, BET1 / RFU, CNOT2 / Fold change vs veh, CNOT2 / RFU, ZNF268 / Fold change vs veh, ZNF268 / Fold change vs veh, ZNF507 / RFU, DGCR2 / Fold change vs veh, DGCR2 / RFU, WDSUB1 / Fold change vs veh, WDSUB1 / Fold change vs veh, HSP90B1 /// MIR3652 / RFU, ADSS / Fold change vs veh, ADSS / RFU, GK / Fold change vs veh, GK / RFU, ZNF148 / Fold change vs veh, ZNF148 / RFU, TAF9 / Fold change vs veh, TAF9 / RFU, SLC1A5 / Fold change vs veh, SLC1A5 / RFU, SLMO2 / Fold change vs veh, SLMO2 / RFU, ABCC4 / Fold change vs veh, ABCC4 / RFU, LOC101060439 /// RAP1B / Fold change vs veh, LOC101060439 /// RAP1B / RFU, RFX7 / Fold change vs veh, RFX7 / RFU, GTPBP10 / Fold change vs veh, GTPBP10 / RFU, CNEP1R1 / Fold change vs veh, CNEP1R1 / RFU, BIVM-ERCC5 /// ERCC5 / Fold change vs veh, BIVM-ERCC5 /// ERCC5 / RFU, ILF3 / Fold change vs veh, ILF3 / RFU 11762660_at / Fold change /veh 11762660_at / RFU VCAN (11757783_s_at) / Fold change /veh VCAN (11757783_s_at) / RFU DDX43 (11728927_at) / Fold change /veh DDX43 (11728927_at) / RFU KRT8 (11758188_x_at) / Fold change /veh KRT8 (11758188_x_at) / RFU NKD1 (11759106_at) / Fold change /veh NKD1 (11759106_at) / RFU SRD5A1 (11742802_a_at) / Fold change /veh SRD5A1 (11742802_a_at) / RFU TPSAB1 /// TPSB2 (11721975_s_at) / Fold change /veh TPSAB1 /// TPSB2 (11721975_s_at) / RFU GSTM3 (11746129_a_at) / Fold change /veh GSTM3 (11746129_a_at) / RFU IL23R (11737362_x_at) / Fold change /veh IL23R (11737362_x_at) / RFU TMEM51 (11727254_a_at) / Fold change /veh TMEM51 (11727254_a_at) / RFU PIWIL2 (11732686_x_at) / Fold change /veh PIWIL2 (11732686_x_at) / RFU ORM1 (11744905_x_at) / Fold change /veh ORM1 (11744905_x_at) / RFU CCDC152 (11743942_at) / Fold change /veh CCDC152 (11743942_at) / RFU ECM1 (11717891_a_at) / Fold change /veh ECM1 (11717891_a_at) / RFU IL23R (11748794_a_at) / Fold change /veh IL23R (11748794_a_at) / RFU TNFAIP8L3 (11732012_x_at) / Fold change /veh TNFAIP8L3 (11732012_x_at) / RFU MBOAT4 (11741988_at) / Fold change /veh MBOAT4 (11741988_at) / RFU 11764193_at / Fold change /veh 11764193_at / RFU TMEM53 (11763286_at) / Fold change /veh TMEM53 (11763286_at) / RFU MAGEB2 (11727129_at) / Fold change /veh MAGEB2 (11727129_at) / RFU TMEM200A (11744735_a_at) / Fold change /veh TMEM200A (11744735_a_at) / RFU CCDC152 (11751479_a_at) / Fold change /veh CCDC152 (11751479_a_at) / RFU FAM211A (11726209_a_at) / Fold change /veh FAM211A (11726209_a_at) / RFU RGS16 (11746705_a_at) / Fold change /veh RGS16 (11746705_a_at) / RFU VCAN (11755009_s_at) / Fold change /veh VCAN (11755009_s_at) / RFU RHOB (11743442_s_at) / Fold change /veh RHOB (11743442_s_at) / RFU RGS16 (11720943_a_at) / Fold change /veh RGS16 (11720943_a_at) / RFU RGS16 (11720944_at) / Fold change /veh RGS16 (11720944_at) / RFU, VPS4B / Fold change vs veh, VPS4B / RFU, CREB1 / Fold change vs veh, CREB1 / RFU, DNAJC13 / Fold change vs veh, DNAJC13 / RFU, GNAQ / Fold change vs veh, GNAQ / RFU, CDK5R1 / Fold change vs veh, CDK5R1 / RFU, ZRANB3 / Fold change vs veh, ZRANB3 / RFU, CUL4A / Fold change vs veh, CUL4A / RFU, CCNY / Fold change vs veh, CCNY / RFU, UFL1 / Fold change vs veh, UFL1 / RFU, COG3 / Fold change vs veh, COG3 / RFU, DIAPH2 / Fold change vs veh, DIAPH2 / RFU, SKA2 / Fold change vs veh, SKA2 / RFU, AFF3 / Fold change vs veh, AFF3 / RFU, LMF1 / Fold change vs veh, LMF1 / RFU, IPO11 / Fold change vs veh, IPO11 / RFU, DFFB / Fold change vs veh, DFFB / RFU, FOXP1 / Fold change vs veh, FOXP1 / RFU, CARD8 / Fold change vs veh, CARD8 / RFU, STRN3 / Fold change vs veh, STRN3 / RFU, ADK / Fold change vs veh, ADK / RFU, RASSF2 / Fold change vs veh, RASSF2 / RFU, WIPF1 / Fold change vs veh, WIPF1 / RFU, LARP1B / Fold change vs veh, LARP1B / RFU, RASA1 / Fold change vs veh, RASA1 / RFU, RB1 / Fold change vs veh, RB1 / RFU, PPFIA1 / Fold change vs veh, PPFIA1 / RFU, MAT2A / Fold change vs veh, MAT2A / RFU, CCT5 / Fold change vs veh, CCT5 / RFU, WDR92 / Fold change vs veh, WDR92 / RFU, CUX1 / Fold change vs veh, CUX1 / RFU, TTC7A / Fold change vs veh, TTC7A / RFU, TMEM135 / Fold change vs veh, TMEM135 / RFU, DEPTOR / Fold change vs veh, DEPTOR / RFU, CPM / Fold change vs veh, CPM / RFU, DNAJB6 / Fold change vs veh, DNAJB6 / RFU, CACNA2D3 / Fold change vs veh, CACNA2D3 / RFU, DTX4 / Fold change vs veh, DTX4 / RFU, TFCP2 / Fold change vs veh, TFCP2 / RFU, GMCL1 /// GMCL1P1 / Fold change vs veh, GMCL1 /// GMCL1P1 / RFU, AEBP2 / Fold change vs veh, AEBP2 / RFU, SNHG1 /// SNORD22 /// SNORD25 /// SNORD26 /// SNORD27 /// SNORD28 /// SNORD29 /// SNORD31 / Fold change vs veh, SNHG1 /// SNORD22 /// SNORD25 /// SNORD26 /// SNORD27 /// SNORD28 /// SNORD29 /// SNORD31 / Fold change (Aza/veh), C12orf56 (ProbeSet 11735607_a_at) / Fold change (ACY-1035/veh), C12orf56 (ProbeSet 11735607_a_at) / Fold change (Aza/veh), FGFR1OP (ProbeSet 11751329_s_at) / Fold change (ACY-1035/veh), FGFR1OP (ProbeSet 11751329_s_at) / Fold change (Aza/veh), VPS36 (ProbeSet 11739960_a_at) / Fold change (ACY-1035/veh), VPS36 (ProbeSet 11739960_a_at) / RFU SYPL1 (11715823_x_at) / Fold change /veh SYPL1 (11715823_x_at) / RFU IGFBP7 (11715501_s_at) / Fold change /veh IGFBP7 (11715501_s_at) / RFU REEP3 (11722064_at) / Fold change /veh REEP3 (11722064_at) / RFU IGLL1 (11728026_x_at) / Fold change /veh IGLL1 (11728026_x_at): dose or concentration left out as unconfirmed
# Settings: ProbeSet 11757113_a_at; LIST D
smiles,measurement,value
Nc1ncn([C@@H]2O[C@H](CO)[C@@H](O)[C@H]2O)c(=O)n1 [azacitidine],"RFU, SNHG1 /// SNORD22 /// SNORD25 /// SNORD26 /// SNORD27 /// SNORD28 /// SNORD29 /// SNORD31",298.12 RFU
